We go through 4 molecules from patent publication US7927794B2, “Methods for identifying a biosynthetic pathway gene product” (priority 2003, dated 2011).

The structures appear in SMILES notation.

The subject of one data set is engineered E. coli. Put plainly: Growth and metabolite analysis of E. coli expressing S. cerevisiae HMG-CoA synthase (pHMGS). In kind it is cell-based, Escherichia coli. To be noted: accumulation on expression of HMG-CoA synthase from pHMGS. From the text: As a specific example, the accumulation of hydroxymethylglutaryl-CoA (HMG-CoA) is toxic to engineered E. coli.
FIG. 10. Cultures of E. coli expressing either no heterologous genes (Control), the S. cerevisiae HMG-CoA synthase alone (pHMGS & Empty Vector), or both the S. cerevisiae HMG-CoA synthase and HMG-CoA reductase (pHMGS & pHMGR) on separate expression vectors.
FIG. 11. Metabolite analysis of cultures of E. coli expressing either no heterologous genes (Control), the S. cerevisiae HMG-CoA synthase alone (pHMGS and Empty Vector), or both the S. cerevisiae HMG-CoA synthase and HMG-CoA reductase (pHMGS and pHMGR) on separate expression vectors. E. coli expressing HMG-CoA synthase alone accumulated HMG-CoA.

In a further data set the test system is E. coli strain DYM1. Put plainly: Complementation of isoprenoid-deficient ispC mutant E. coli strain DYM1 on supplemented plates. In kind it is cell-based, Escherichia coli. An excerpt: (§1) Campos (2001) Biochem. J. 353:59-67.
To increase the intracellular concentration of FPP substrate supplied to the amorphadiene synthase, the genes encoding the mevalonate-dependent isoprenoid pathway from S. cerevisiae were assembled into operons and expressed in E. coli. To simplify the task of engineering an eight-gene biosynthetic pathway, we divided the genes into two operons, referred to as the “top” and “bottom”. The top operon, MevT, transforms the ubiquitous precursor acetyl-CoA to (R)-mevalonate in three enzymatic steps (FIG. 13). The bottom operon converts the (R)-mevalonate to IPP, DMAPP and/or FPP depending on the construct (FIG. 13). To test the functionality of the heterologous pathway, an E. coli strain deficient in isoprenoid synthesis (strain DYM1) was transformed with plasmids expressing the three different bottom operon constructs pMevB, pMBI and pMBIS (FIG. 13). Strain DYM1 has a deletion in the ispC gene, which encodes 1-deoxy-D-xylulose-5-phosphate reductoisomerase (Kuzuyama et al. (1999) supra) and therefore, cannot synthesize 2-C-methyl-D-erythritol 4-phosphate, an intermediate in the endogenous isoprenoid biosynthetic pathway (FIG. 3). As expected, all strains grew in the presence of 2-C-methyl-D-erythritol (ME), but only the strains harboring pMBI or pMBIS and not pMevB grew on plates supplemented with 1 mM mevalonate in the absence of ME. […]

A further data set has as its system E. coli DH10B. The data set can be described thus: Growth (optical density) of E. coli harboring mevalonate pathway operon plasmids in media supplemented with exogenous mevalonate. Also on record: growth of strains lacking the ADS gene: dose or concentration left out as unconfirmed. The protocol:
For the growth studies, the optical density (OD) of cultures expressing the various recombinant pathways was measured with a microtiter plate reader (SpectraMax, Molecular Devices) from 200 μl cultures of LB broth in 96-well plates incubated at 37° C. with continuous shaking. […] The DYM1 strain was propagated on LB medium containing 0.5 mM methylerithrytol (ME) and transformed DYM1 cells were first allowed to recover on plates supplemented with ME before streaking them on test media.
To investigate the cause of this inhibition, measured the growth of E. coli DH10B from strains harboring either the pMKPMK, pMevB, pMBI or pMBIS plasmid in media supplemented with increasing concentrations of exogenous mevalonate was measured. […] To compare the intracellular prenyl pyrophosphate pools in the same strains, resting cells harboring the different mevalonate operon constructs were fed radiolabeled mevalonate and the labeled metabolites were tracked. […] Simultaneous expression of the amorphadiene synthase consumed the excess FPP pool accumulated in the MBIS host, as shown by a decrease in intracellular FPP.
However, in the absence of the IPP isomerase, FPP synthase and terpene synthase to channel the pathway intermediates to the terpene olefin, toxic levels of intracellular pyrophosphates, especially IPP, may accumulate.

A further data set relates to E. coli. Put plainly: Growth of E. coli overproducing IPP and DMAPP (MK, PMK, MPD, IPP isomerase from pBBR1MCS-2) with various concentrations of mevalonate. The following applies: all concentrations of mevalonate studied. In kind it is cell-based, Escherichia coli.
Text: as §1
A genomic library from the isoprene-producing bacteria Bacillus subtilis 6051 was expressed from the pTrc99A plasmid in an E. coli strain engineered (genetically modified) to produce elevated levels of IPP and DMAPP. The engineered screening strain expressed nucleic acids encoding mevalonate kinase, phosphomevalonate kinase, mevalonate diphosphate decarboxylase, and IPP/DMAPP isomerase from the pBBR1MCS plasmid, as described in Example 1. Mevalonate was present in the growth medium at a concentration of 10 mM. After several rounds of growth, only plasmids containing genomic fragments with either yhfR or nudF were found in the genomic library.
FIG. 7. […] Triplicate cultures of E. coli expressing the genes encoding for mevalonate kinase, phosphomevalonate kinase, mevalonate diphosphate decarboxylase, and IPP isomerase from the pBBR1MCS-2 plasmid were grown in the presence of various concentrations of mevalonate present in the culture medium. The cells also harbor the pTRC99A expression vector.
FIG. 8. […] Triplicate cultures were set up, which were identical to those depicted in FIG. 7, except that pTRC99A was replaced by pYhfR. The pYhfR plasmid is a pTrc99A backbone that contains the gene yhfR. The yhfR gene was isolated from a plasmid library containing genomic DNA from Bacillus subtilis 6051.
FIG. 9. […]

As to `CC(C)(COP(=O)(O)OP(=O)(O)OC[C@H]1O[C@@H](n2cnc3c(N)ncnc32)[C@H](O)[C@@H]1OP(=O)(O)O)[C@@H](O)C(=O)NCCC(=O)NCCSC(=O)C[C@@](C)(O)CC(=O)O` [HMG-CoA, hydroxymethylglutaryl-CoA], the “effect of intracellular accumulation on engineered E. coli” value in the data set on engineered E. coli is listed as “toxic”.
With `C[C@](O)(CO)[C@H](O)CO` [2-C-methyl-D-erythritol], the “growth of DYM1 strains harboring pMevB, pMBI or pMBIS” value in the data set with E. coli strain DYM1 (in the presence of 2-C-methyl-D-erythritol (ME)) is reported as “grew”.
As for `C=C(C)CCO[P@@](=O)(O)OP(=O)(O)O` [IPP, isopentenyl diphosphate], the “effect of intracellular accumulation on cell growth” value in the data set on E. coli DH10B (accumulation in cells with high flux through the mevalonate pathway (pMevB)) is “toxic and inhibits normal cell growth”.
On to `CC(O)(CCO)CC(=O)O` (stereo not shown) [mevalonate], for which, in the data set with E. coli DH10B (5 mM mevalonate in the media), the “growth of cells harboring pMKPMK, pMBI or pMBIS” value is reported as “did not affect the growth” and the “growth of cells harboring pMevB” value is listed as “inhibited the growth”. The “growth of cells expressing MBIS” value in the data set on E. coli DH10B (10 mM mevalonate) is on record as “growth inhibition”. Moreover, the “growth of cells co-expressing the MBIS operon and the amorphadiene synthase gene” value in the data set with E. coli DH10B (all mevalonate concentrations, IPTG-inducible promoters) is on record as “normal growth rates”. Moreover, the “growth of strains lacking the ADS gene” value in the data set on E. coli DH10B (approximately 2 hours after addition of mevalonate and IPTG) is “Growth inhibition”. Further, the “growth of control cultures” value in the data set with E. coli DH10B (greater than 10 mM mevalonate, MBIS cultures where amorphadiene synthase was not expressed) is “Severe growth inhibition”. In the data set with E. coli DH10B (media supplemented with 1 mM mevalonate), the “growth on expression of the operons” value is “only a slight decrease in growth”. Besides, the “growth of DYM1 strains harboring pMBI or pMBIS” value with E. coli strain DYM1 (plates supplemented with 1 mM mevalonate in the absence of ME) is on record as “grew”. In addition, the “growth of cells harboring pYhfR (yhfR)” value in the data set with E. coli (FIG. 8) is “No growth inhibition”. The “growth of cells harboring pC9b (nudF)” value in the data set on E. coli (FIG. 9) was “No growth inhibition”.
